Publication PMC5244392, “Interspecies cathelicidin comparison reveals divergence in antimicrobial activity, TLR modulation, chemokine induction and regulation of phagocytosis” (Scientific Reports, 2017)

What was measured:
[1] = tested on: LTA-induced TLR-2 activation of RAW264.7 cells; assay: LTA neutralization: LTA-induced TNFα release; type: cell-based, murine; conditions: peptide 0.08-20 μM; for Summary class, TLR activation LTA: 1 μg/ml LTA S. aureus, TNFα after 2 h, − = no significant effect, N = 3; for LTA neutralization / inhibition of LTA-induced activation, in words: 1 μg/ml S. aureus LTA, 2 h, TNFα
Text: (§1) TLR ligands: LPS Escherichia coli (E. coli) O111:B4 (TLR-4), LTA S. aureus (TLR-2), and ODN-1826 (TLR-9) were obtained from Invivogen (Toulouse, France). Chicken CATH-2 (chCATH-2) and PMAP-36 were synthesized by Fmoc-chemistry at China Peptides (CPC scientific, Sunnycale, CA) and all other cathelicidins were synthesized by Fmoc-chemistry at the Academic Centre for Dentistry Amsterdam (Amsterdam, The Netherlands) (Table 1). Purity of all peptides was >95% as analyzed by HPLC-MS.
(§2) RAW264.7 cells were stimulated with 100 ng/ml LPS E. coli O111:B4, 1 μg/ml LTA S. aureus or 2.5 nM ODN-1826 in the presence of various concentrations of different cathelicidins. TNFα release was determined after 2 h for LPS and LTA stimulation and 24 h for ODN-1826 stimulation. CXCL10, CCL5 and IL-10 release were all determined after 24 h stimulation. As a control, RAW264.7 cells were stimulated for 2 h with 10^6 CFU/ml live or heat-killed (70 °C, 0.5 h) E. coli O78, followed by a double wash with cell culture medium and subsequent 22 h incubation in cell culture medium supplemented with 250 μg/ml gentamicin.
(§3) ELISA Duoset kits for mouse TNFα, CCL5, CXCL10 and IL-10 were obtained from R&D systems (Minneapolis, MN, USA) and ELISAs were performed according to the manufacturer’s protocol. Samples were stored at −20 °C until analysis and, if needed, diluted in 1% BSA in PBS, pH 7.4. Absorbance at 450 nm was determined in a FLUOstar Omega microplate reader (BMG Labtech GmbH) and corrected for absorbance at 570 nm. Results were analyzed with MARS data analysis software (BMG Labtech GmbH).
RAW264.7 cells were stimulated for 2 h with 100 ng/ml LPS from E. coli O111:B4 in the presence of different cathelicidins at various concentrations to study the capability of LPS neutralization (Fig. 3A). […] Next, RAW264.7 cells were stimulated with 1 μg/ml S. aureus LTA for 2 h in the presence of various cathelicidin concentrations, to test LTA neutralization (Fig. 3B).
(§4) Figure 3 Effects of cathelicidins on TLR-2, -4, and -9 activation. LPS (100 ng/ml) (A), LTA (1 μg/ml) (B) or ODN-1826 (2.5 nM) (C) was mixed with different cathelicidins (0.08 μM, 0.31 μM, 1.25 μM, 5 μM, and 20 μM) before addition to the RAW264.7 cells. Supernatants were collected after 2 hours (A,B) or 24 hours (C) incubation and TNFα expression was measured. The dotted line represents the average cytokine release of control samples. Results are presented as average +/− SEM (N = 3). Statistical differences were determined by Two-way ANOVA with Bonferroni post-hoc test.

[2] = tested on: DNA-induced TLR-9 activation of RAW264.7 cells; assay: Enhancement of DNA (ODN-1826)-induced TNFα release; type: cell-based, murine; conditions: 2.5 nM ODN-1826, TNFα after 24 h; for Enhancement of DNA-induced TLR-9 activation, in words: 20 μM for the named peptides; for Summary class, TLR activation DNA: peptide 0.08-20 μM, − = no significant effect, N = 3
Text: as §1, §2, §3, §4
All other peptides had no effect on the DNA-induced TLR-9 activation. To ensure that the increase of TNFα secretion was indeed enhancement of DNA-induced activation and not a result of direct induction by cathelicidins, TNFα release was determined after 24 h cathelicidin stimulation (see Supplementary Fig. S2D). None of the cathelicidins induced TNFα release after 24 h, (if anything, most cathelicidins caused a small reduction of TNFα secretion) indicating the increased activation is indeed enhancement of DNA-induced activation.

[3] = tested on: CCL5 (RANTES) release by RAW264.7 cells; assay: Cathelicidin induced CCL5 release; type: cell-based, murine; conditions: for Induction of CCL5 secretion after 24 h stimulation: 20 μM peptide; for Summary class, chemokines CCL5 (24 h): 24 h stimulation, peptide 0.08-20 μM, − = no significant effect, N = 3
Experimental: E. coli O78 (Zoetis Animal Health, Kalamazoo, MI, USA), E. coli ATCC 25922, Staphylococcus aureus ATCC 29213, and methicillin resistant Staphylococcus aureus (MRSA) (WKZ-2, human clinical isolate) were grown overnight from a glycerol stock in Mueller Hinton Broth (MHB) (Becton Dickinson, USA). Before use, bacteria were grown to mid-log phase in MHB for 2 hours at 37 °C, 200 RPM. Murine RAW264.7 macrophages (ATCC-TIB-71) were obtained from the American Type Culture Collection (ATCC, Manassas, VA, USA) and cultured in DMEM (41966-029; Thermo Fisher Scientific, Waltham, MA, USA) supplemented with 10% FCS (Bodinco B.V., Alkmaar, the Netherlands) (DMEM + FCS) at 37 °C, 5.0% CO2. Cells were seeded in 96-wells plates at 5 × 10^5 cells/ml or 12-wells plates at 2 × 10^5/ml for adherence overnight prior to stimulation.
as §2, §3
Since cathelicidins have membrane-perturbing properties which might affect the host’s cell membrane, first the possible cytotoxicity of the cathelicidins to RAW264.7 cells was assessed. […] Next, RAW264.7 cells were stimulated with the cathelicidins at various concentrations for 2 h and 24 h, after which release of CCL2 (MCP-1), CCL5 (RANTES), CXCL10 (IP-10), TNFα and IL-10 was determined.
Figure 2 Cathelicidin induced chemokine and cytokine release by RAW264.7 cells. RAW264.7 cells were incubated for 2 h and 24 h with cathelicidins (0.08 μM, 0.31 μM, 1.25 μM, 5 μM, and 20 μM), after which the supernatants were harvested and tested for release of CCL2 at 2 h (A) and 24 h (B), CCL5 at 24 h (C) and CXCL10 at 24 h (D). Dotted line represents average cytokine release of control samples. […] Statistical differences were determined by Two-way ANOVA with Bonferroni post-hoc test.

S. aureus = assay: MBC by plating wells without visible growth, S. aureus; type: cell-based, Staphylococcus aureus; conditions: S. aureus in DMEM; results not shown
Experimental: In order to compare our Cmax with MBC values, wells without visible bacterial growth were plated out on TSA plates and incubated o/n at 37 °C to determine the presence of viable bacteria.
The antimicrobial capacities were tested under the same conditions and expressed as growth delay instead of the more classical MIC/MBC determination using broth dilution assays. […] The fact that DMEM medium makes S. aureus susceptible to PR-39 is surprising since this peptide is thought to require active uptake by the SbmA transporter, only present in Gram – bacteria. The results obtained in this work, might indicate that the peptide possibly switches to a different mechanism of action with initially a bacteriostatic effect, but more thorough studies are required to elucidate the details of these initial observations.

Substance	Summary class, TLR activation LTA [1]	Enhancement of DNA-induced TLR-9 activation, in words [2]	Summary class, TLR activation DNA [2]	LTA neutralization / inhibition of LTA-induced activation, in words [1]	Optimal concentration to induce DNA activation [2]	Induction of CCL5 secretion after 24 h stimulation [3]	Summary class, chemokines CCL5 (24 h) [3]	Fold higher MBC than Cmax (S. aureus)
GLLRKGGEKIGEKLKKIGQKIKNFFQKLVPQPEQ [CRAMP, murine cathelicidin, 34 residues, charge +6]	↓ (↓ = significant decrease at 20 μM)							
KRRHWFPLSFQEFLEQLRRFRDQLPFP [eCATH-2, equine CATH-2, 27 residues, charge +4]	↓↓ (↓↓ = significant decrease ≤5 μM)	able to enhance DNA-induced TLR-9 activation	↑ (↑ = significant increase at 20 μM)	significantly inhibited				
RFGRFLRKIRRFRPKVTITIQGSARF-NH2 [chCATH-2, chicken CATH-2, C-terminal amide, 26 residues, charge +9]	↓↓ (↓↓ = significant decrease ≤5 μM)		↑↑ (↑↑ = significant increase ≤5 μM)	potently inhibited	1.25 µM	2–3 fold	↑ (↑ = significant increase at 20 μM)	
RIIDLLWRVRRPQKPKFVTVWVR [PMAP-23, porcine α-helical cathelicidin, 23 residues, charge +6]	↓ (↓ = significant decrease at 20 μM)	able to enhance DNA-induced TLR-9 activation	↑ (↑ = significant increase at 20 μM)					
RLKELITTGGQKIGEKIRRIGQRIKDFFKNLQPREEKS [Peptide K9CATH, dog cathelicidin, 38 residues, charge +6]						2–3 fold	↑ (↑ = significant increase at 20 μM)	
RRRPRPPYLPRPRPPPFFPPRLPPRIPPGFPPRFPPRFP [PR-39, porcine proline-rich cathelicidin forming a polyproline helix, 39 residues, charge +10]		able to enhance DNA-induced TLR-9 activation	↑ (↑ = significant increase at 20 μM)					16 fold
